Measured values: patent US20260137697A1, “THIAZOLO[5,4-D]PYRIMIDINE COMPOUNDS, COMPOSITIONS COMPRISING THEM AND USES THEREOF” (University de Montreal, priority 2022, published 2026)

Test system: pERK, RAS-mutant cancer cell lines
Experiment: Paradoxical pERK induction across the panel of RAS-mutant cancer cell lines
Assay type: cell-based, human
Conditions: in 10 of the 13 RAS-mutant cell lines tested; mild to strong induction of the pathway
Method: All cancer cell lines (A375, A101D, A2058, RKO, HT29 SK-MEL 30, IPC298, HepG2, HCT-116, Lovo, SW620, SW480, NCI-H358, NCI-H2122, Calu-6, NCIH2087, NCIH1755, NCIH1666 and Mewo) were obtained from ATCC and cultured in RPM1-1640 medium (Gibco) supplemented with 5% heat inactivated fetal bovine serum (FBS, Wisent) at 37° C. under 5% CO2. Cells were maintained in T175 flasks (Greiner). They were passaged by removing the culture medium, washing once in 10 mL of room temperature Phosphate Buffered Saline (PBS; Wisent) and incubating at 37° C. with 2 mL of 0.05% Trypsin (Thermo-Fisher). […]
After treatment, media was removed, and cells were lysed in 50 μL of 1× AlphaScreen Ultra Lysis Buffer (Perkin Elmer). […] After completion of the reactions, the signals were recorded on an EnVision plate reader (Perkin Elmer) using built in AlphaLISA® settings.
The effect of each compound dilution on the pERK signal was expressed in % inhibition and calculated as follows. […]
The ability of each compound to inhibit pERK signal was expressed as an IC50 value obtained by plotting the inhibition values for each data point of a dilution series and fitting the obtained curves using a log(agonist) versus response—variable slope (four parameters) function using GraphPadPrism (V7.0) or Dotmatics Screening Ultra platform. […]

YMIN of pERK IC50 curves: < −30%
Structure (SMILES): Cc1ccc2c(Nc3cccc(Cl)c3F)nccc2c1NC(=O)c1csc2c(N)ncnc12 [Belvarafenib, reference compound]
